Test results taken from patent US8415507B2 (priority 2010, dated 2013).

Columns and labels:
[1] = in vivo; cited from earlier work
[2] = Lopez-Nicolas 2009; cited from earlier work
[3] = Relative humidity stability at ambient temperature, analyzed by XRPD; assay type: physicochemical
Description: Upon completion of the duration allowed, the samples were immediately analyzed by XRPD.

[4] = solution supersaturated with respect to pterostilbene; after three days
Procedure: Solubility and concentration measurements were performed using ultraviolet (UV) spectroscopy on a Spectramax Microplate Reader.
Appropriate dilutions with water were made as necessary to maintain absorbance readings within the standard curve. All experiments were repeated three times to evaluate the standard deviation, while particle size was not controlled for any of the experiments.
Aliquots were centrifuged; supernatant was extracted, and appropriate dilutions were made to maintain absorbance readings within the standard curve. […] All experiments were repeated three times to evaluate the standard deviation, while particle size was not controlled for any of the experiments.

[5] = assay type: physicochemical
Procedure: Intrinsic dissolution in 900 mL water at ambient conditions was also attempted. […] Therefore, a concentration vs. time and intrinsic dissolution rate value were unobtainable at these conditions.

COc1cc(/C=C/c2ccc(O)cc2)cc(OC)c1 [pterostilbene, trans-3,5-dimethoxy-4′-hydroxystilbene]
Bioavailability [1]: poor bioavailability
Solubility in water [2]: poor solubility in water

Cn1c(=O)c2c(ncn2C)n(C)c1=O [caffeine, reference compound]
Conversion to hydrate at 75% RH ([3]; 75% RH, up to four weeks): does not display signs of conversion
Time of partial conversion to hydrate at 94% RH ([3]; 94% RH): between one and three days
Time of conversion to hydrate at 98% RH ([3]; 98% RH): less than one day

COc1cc(/C=C/c2ccc(O)cc2)cc(OC)c1.Cn1c(=O)c2c(ncn2C)n(C)c1=O [cocrystal 1 (Form I), pterostilbene:caffeine]
Results (form by XRPD) ([3]; additional stress at 98% RH, 1 week (listed after 75% RH, 1 week)): cocrystal 1 (Form I), no caffeine hydrate
Results (form by XRPD) ([3]; additional stress at 98% RH, 4 weeks (listed after 94% RH, 7 days)): cocrystal 1 (Form I), no caffeine hydrate
Results (form by XRPD) ([3]; additional stress at 98% RH, 1 day (listed after 75% RH, 1 day)): cocrystal 1 (Form I), no caffeine hydrate
Results (form by XRPD) ([3]; slurry, 2 days): cocrystal 1 (Form I), no caffeine hydrate
Outcome of slurrying in water [4]: precipitation of pterostilbene

pterostilbene:glutaric acid [cocrystal 3]
XRPD result in intrinsic dissolution ([5]; 900 mL water at ambient conditions, after 30 minutes): crystalline pterostilbene
XRPD result in powder dissolution ([5]; slurrying in water at ambient, after 5 minutes): crystalline pterostilbene
